Data on 9 compounds can be found in patent US8871778B2, “Substituted pyrimidine compounds and their use as SYK inhibitors” (Genosco, priority 2012, dated 2014).

The target in test [1] is full-length human KDR (VEGFR2) (Homo sapiens (Human), UniProt P35968). The test can be described thus: Inhibition of enzymatic KDR kinase activity (LANCE Ulight-JAK1 peptide, Eu-antibody, 665 nm emission). Type of test: biochemical. The note with it: ATP at Km (15 uM).
Test [2] deals with CIA mouse model (DBA/1J mice). The experiment in a line: Collagen-induced arthritis (CIA) mouse model, macroscopic scoring of paws. It is filed as in vivo. The note with it: for Inhibition in arthritis phenotype indicated by CIA compared with R788 (in words): mouse, in vivo; for CIA index (arthritic score of test group / vehicle group x 100): 30 mg/kg/day oral gavage once daily, DBA/1J mice.
Protocol: CIA mouse model was induced in DBA/1J mice (Japan Charles River Breeding Laboratories, Kanagawa, Japan) with 5 to 6 weeks of age. Animals were maintained at a temperature of 20±5° C. and a relative humidity of 40˜60%.
Bovine type II collagen (CII, 2 mg/ml dissolved in 0.05 M acetic acid, Chondrex, Redmond, Wash.) was emulsified in equal volumes of Freund's complete adjuvant (4 mg/ml of Mycobacterium tuberculosis strain H37Ra; Chondrex, Redmond, Wash.). On day 0, mice were immunized intradermally at the base of the tail with 100 μg bovine type II collagen emulsified in Freund's complete adjuvant. On day 21, all mice were boosted with an intraperitoneal injection of 100 μg type II collagen.
All the test substances were administered once daily at 30 mg/kg/day by oral gavage for 3 weeks.
The gradual onset of arthritis usually starts approximately 3 weeks after initial immunization. The progression of CIA was evaluated by the macroscopic scoring of paws at intervals of 3 days. The edema and swelling of each paw was scored visually as was described previously, using a scale of 0-4, where 0=no visible abnormalities, 1=mild redness or swelling of the wrist or up to three inflamed digits, 2=more than three inflamed digits or moderate redness and swelling of the ankle or wrist, 3=severe ankle and wrist inflammation, 4=extensive ankle and wrist inflammation including all digits.
Arthritis was considered to be present if the score was >2. The blind scoring was performed by four independent observers. In this study, data was calculated by following equation.

Test [3] has as its system THP-1 cells. The test can be described thus: SYK-independent TNF-α release assay (lipopolysaccharide stimulation), ELISA. It is filed as cell-based, human. The note with it: SYK-independent pathway; for IC50: LPS, 18 hours, read-out: TNF-α release inhibition, LPS stimulation (IC50 nM).
Protocol: For SYK-independent TNF-α release assay, THP-1 cells were seeded at 1×10^5 cells/100 μL/well into 96 well culture plate, and serially diluted compound solution was added following lipopolysaccharide stimulation. After an 18-hour incubation period at 37° C., supernatants were collected for the determination of the TNF-α level by enzyme-linked immunosorbent assay (ELISA), and the remaining cells were subjected to an MTT (yellow tetrazolium salt) assay to determine the cytotoxic effects of compound. The IC50 value of test compound was calculated at Gradpad Prism 5 unless otherwise specified.
The target of another test is full-length human SYK (Homo sapiens (Human), UniProt P43405). The experiment in a line: Inhibition of enzymatic SYK kinase activity (LANCE Ulight-TK peptide, Eu-antibody, 665 nm emission). The note with it: ATP at Km (15 uM). It is filed as biochemical. For orientation: TR-FRET usually uses a lanthanide donor and a delayed reading to cut background.
Test [4] deals with THP-1 cells. The experiment in a line: SYK-dependent TNF-α release assay (IgG stimulation), ELISA. It is filed as cell-based, human. The settings on record: for IC50: human IgG-coated plate, 18 hours, SYK-dependent pathway, read-out: TNF-α release inhibition, IgG stimulation (IC50 nM).
Protocol: For SYK-dependent TNF-α release assay (i.e., via IgG stimulation), THP-1 cells derived from human monocytic cells were obtained from the American Type Culture Collection (ATCC, Manassas, Va.). This cell line was maintained with a Roswell Park Memorial Institute (RPMI) medium (GIBCO) containing 10% fetal bovine serum (FBS; GIBCO) and 0.05 mM solution of 2-mercaptoethanol. The THP-1 cells were seeded at 1×10^5 cells/100 μL/well into human IgG (10 ng/well, INVITROGEN)-coated 96 well culture plate, and serially diluted compound was then added. After an 18 hours of incubation period at 37° C., supernatants were collected for the determination of the TNF-α level by enzyme-linked immunosorbent assay (ELISA), and the remaining cells were subjected to an MTT (yellow tetrazolium salt) assay to determine the cytotoxic effects of the compound. The IC50 value of the test compound was calculated at Gradpad Prism 5 unless otherwise specified.

Chain of full-length human KDR (VEGFR2) (P35968 20-1356): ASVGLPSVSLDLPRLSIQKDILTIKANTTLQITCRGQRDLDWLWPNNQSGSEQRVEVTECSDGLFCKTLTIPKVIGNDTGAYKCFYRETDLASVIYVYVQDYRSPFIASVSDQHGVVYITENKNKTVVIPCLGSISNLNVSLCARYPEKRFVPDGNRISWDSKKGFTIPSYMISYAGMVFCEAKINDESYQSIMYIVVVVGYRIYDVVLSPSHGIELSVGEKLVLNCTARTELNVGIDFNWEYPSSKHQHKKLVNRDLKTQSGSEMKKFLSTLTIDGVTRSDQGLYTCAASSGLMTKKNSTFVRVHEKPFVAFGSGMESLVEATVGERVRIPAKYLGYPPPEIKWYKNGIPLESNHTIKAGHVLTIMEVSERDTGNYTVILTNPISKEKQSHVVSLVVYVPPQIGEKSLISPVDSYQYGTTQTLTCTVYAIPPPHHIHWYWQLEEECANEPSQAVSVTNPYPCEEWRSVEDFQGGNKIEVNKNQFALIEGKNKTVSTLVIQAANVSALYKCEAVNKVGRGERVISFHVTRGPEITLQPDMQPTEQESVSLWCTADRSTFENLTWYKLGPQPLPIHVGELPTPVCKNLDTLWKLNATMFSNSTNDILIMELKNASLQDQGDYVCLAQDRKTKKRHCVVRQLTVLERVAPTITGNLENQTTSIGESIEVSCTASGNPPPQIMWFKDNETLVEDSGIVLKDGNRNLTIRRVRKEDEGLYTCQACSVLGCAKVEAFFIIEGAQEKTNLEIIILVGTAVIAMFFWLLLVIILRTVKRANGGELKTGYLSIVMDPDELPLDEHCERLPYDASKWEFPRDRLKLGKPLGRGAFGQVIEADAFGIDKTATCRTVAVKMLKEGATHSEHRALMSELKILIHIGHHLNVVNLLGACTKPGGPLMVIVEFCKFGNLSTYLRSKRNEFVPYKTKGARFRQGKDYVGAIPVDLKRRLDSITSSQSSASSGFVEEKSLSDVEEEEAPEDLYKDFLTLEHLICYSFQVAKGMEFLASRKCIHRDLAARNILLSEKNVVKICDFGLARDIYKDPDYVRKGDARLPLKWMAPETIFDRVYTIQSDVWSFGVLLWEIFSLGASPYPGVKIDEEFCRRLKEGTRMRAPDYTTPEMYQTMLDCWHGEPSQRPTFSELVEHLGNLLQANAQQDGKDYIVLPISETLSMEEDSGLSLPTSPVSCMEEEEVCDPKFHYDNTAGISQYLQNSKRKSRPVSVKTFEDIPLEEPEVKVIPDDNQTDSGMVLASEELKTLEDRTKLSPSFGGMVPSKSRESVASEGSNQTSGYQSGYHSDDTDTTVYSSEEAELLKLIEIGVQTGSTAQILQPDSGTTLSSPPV

As for `Cc1nn(-c2ccnc(Nc3ccc4c(c3)c(Cl)c(C)n4C)n2)cc1CN1CC(O)C1` [Compound 141, 1-((1-(2-(3-chloro-1,2-dimethyl-1H-indol-5-ylamino)pyrimidin-4-yl)-3-methyl-1H-pyrazol-4-yl)methyl)azetidin-3-ol], in test [1], the IC50 (as a rule, the concentration that gives 50% inhibition) was found to be 192 nM. Besides, the “Inhibition in arthritis phenotype indicated by CIA compared with R788 (in words)” value in test [2] is “stronger inhibition”.

Turning to `C[C@@H]1C[C@H]2[C@@H]3CCC4=CC(=O)C=C[C@]4(C)[C@@]3(F)[C@@H](O)C[C@]2(C)[C@@]1(O)C(=O)CO` [Dexamethasone], the IC50 with THP-1 cells [3] is 431 nM.

Turning to `COc1cc(Nc2ncc(F)c(Nc3ccc4c(n3)N(COP(=O)(O)O)C(=O)C(C)(C)O4)n2)cc(OC)c1OC` [Compound R788], the “CIA index (arthritic score of test group / vehicle group x 100)” value in test [2] (day 6) came out at 41.9 ± 7.5%; in test [2] (day 9) it was 49.6 ± 9.4%; in test [2] (day 12), 68.3 ± 8.6%; in test [2] (day 15), 74.1 ± 7.1%; in test [2] (day 18), 79.4 ± 10.7%; in test [2] (day 21) it was 80.1 ± 6.7%.

Turning to `Cc1cn(-c2ccnc(Nc3ccc4c(ccn4C)c3)n2)cc1CN1CC(O)C1` [Compound 52, 1-((4-methyl-1-(2-(1-methyl-1H-indol-5-ylamino)pyrimidin-4-yl)-1H-pyrrol-3-yl)methyl)azetidin-3-ol], the IC50 at full-length human SYK came out at 190 nM.

As for `Cc1nn(-c2ccnc(Nc3ccc4c(c3)c(Cl)c(C)n4C)n2)cc1CN1CC[C@@H](O)C1` [Compound 189, (R)-1-((1-(2-(3-Chloro-1,2-dimethyl-1H-indol-5-ylamino)pyrimidin-4-yl)-3-methyl-1H-pyrazol-4-yl)methyl)pyrrolidin-3-ol], the figures for the IC50 in the test with THP-1 cells [3] (Homo sapiens) and in the test on THP-1 cells [4] were 2800 nM and 42 nM, respectively.

Take `COc1cc(Nc2ncc(F)c(Nc3ccc4c(n3)NC(=O)C(C)(C)O4)n2)cc(OC)c1OC` [Compound R406, reference compound]: in the test with THP-1 cells [4], the IC50 amounted to 171 nM.

On to `Cc1nn(-c2ccnc(Nc3ccc4c(c3)c(Cl)cn4C)n2)cc1CN1CC(O)C1` [Compound 144, 1-((1-(2-(3-Chloro-1-methyl-1H-indol-5-ylamino)pyrimidin-4-yl)-3-methyl-1H-pyrazol-4-yl)methyl)azetidin-3-ol], for which the half-inhibitory concentration (IC50) with THP-1 cells [3] (Homo sapiens) came to 1140 nM; in the test with THP-1 cells [4] it was 13 nM. In the test on THP-1 cells [3], the “Inhibition in LPS stimulated TNF-α production (in words)” value is recorded as “no inhibition”. Moreover, in test [2], the “Inhibition in arthritis phenotype indicated by CIA compared with R788 (in words)” value is listed as “stronger inhibition”. Besides, the “Inhibition in SYK dependent TNF-α release assay compared with R406 (in words)” value with THP-1 cells [4] (IgG stimulated release) is listed as “stronger inhibition than R406”.

For the compound `Cc1nn(-c2ccnc(Nc3ccc4c(c3)c(C(=O)C(F)(F)F)cn4C)n2)cc1CN1CC(O)C1` [Compound 151, 2,2,2-Trifluoro-1-(5-(4-(4-((3-hydroxyazetidin-1-yl)methyl)-3-methyl-1H-pyrazol-1-yl)pyrimidin-2-ylamino)-1-methyl-1H-indol-3-yl)ethanone], the IC50 in the test on THP-1 cells [3] (Homo sapiens) was more than 1000 nM; with THP-1 cells [4] it was 20 nM.

Regarding `Cc1nn(-c2ccnc(Nc3ccc4c(cnn4C)c3)n2)cc1CN1CC(O)C1` [Compound 160, 1-((3-Methyl-1-(2-(1-methyl-1H-indazol-5-ylamino)pyrimidin-4-yl)-1H-pyrazol-4-yl)methyl)azetidin-3-ol], the IC50 with THP-1 cells [3] (Homo sapiens) stood at 934 nM; with THP-1 cells [4] it was 91 nM.
